Reference: EPA's aquatic toxicity sets

Test system: Pimephales promelas
Assay: 96 h LC50 (-log10 mol/L); higher = more toxic

Point of comparison: `Cc1nnc(N)nc1C`, “96 h LC50 (-log10 mol/L)” value 2.12. Against it:
- Cc1ccc(Cl)c(Cl)c1 — higher, 4.74
- O=C(Oc1ccccc1)c1ccccc1O — higher, 5.28
- O=C(O)C(Br)Br — higher, 3.5
- CCCCOC(=O)c1ccc(C(=O)OCCCC)cc1 — higher, 5.67
- CC(O)(c1ccc(Cl)cc1)c1ccc(Cl)cc1 — higher, 5.25
- Clc1ccc(C(c2ccc(Cl)cc2)C(Cl)Cl)cc1 — higher, 4.86
- CC(C)(c1cc(Br)c(O)c(Br)c1)c1cc(Br)c(O)c(Br)c1 — higher, 5.83
- CC(C)(C)CN — within 0.2 log units, 2.26
- CC(C)(C)c1ccc(C(N)=O)cc1 — higher, 3.75
- ClCCOCOCCCl — higher, 2.97
- c1cc[n+]2c(c1)-c1cccc[n+]1CC2 — higher, 4.12
- COc1ccc(O)cc1 — higher, 3.11
- ClC1C(Cl)C(Cl)C(Cl)C(Cl)C1Cl (stereo not given) — higher, 6.61
- CCOP(=S)(OCC)SCCSCC — higher, 4.85
- CC(N)CN (stereo not given) — lower, 1.82
- CC(C)(O)C(F)(F)C(F)F — higher, 2.44
- Cc1cocn1 — lower, 1.78
- OC(C(F)(F)F)C(F)(F)F — higher, 2.84
- CCCCCCC(C)N (stereo not given) — higher, 4.4
- Cc1ccc(S(=O)(=O)n2ccnc2)cc1 — higher, 3.73
- O=P(c1ccccc1)(c1ccccc1)c1ccccc1 — higher, 3.71
- NC(=O)c1cccc(Br)c1 — higher, 3.33
- O=S1OCC2C(CO1)C1(Cl)C(Cl)=C(Cl)C2(Cl)C1(Cl)Cl (stereo not given) — higher, 8.48
- CCC1(CCC(C)C)C(=O)NC(=O)NC1=O — higher, 3.42
- O=CC=O — higher, 2.43
- C=CC(C)(O)CC/C=C(\C)CCC=C(C)C (stereo not given) — higher, 5.19
- CN(C)C(=O)C(c1ccccc1)c1ccccc1 — higher, 3.7
- COCCCNCc1cc(OC)c(OC)c(OC)c1 — higher, 3.3
- Nc1ccc(F)c(C(F)(F)F)c1 — higher, 3.77
- CCOP(=S)(OCC)SC1OCCOC1SP(=S)(OCC)OCC (stereo not given) — higher, 4.66
- CCCCCCCC/C=C\CCCCCCCC(=O)O — higher, 3.14
- CC1=CC[C@@H]2C[C@H]1C2(C)C — higher, 5.69
- C#CC1(O)CCCCC1 — higher, 2.69
- O=S(=O)([O-])c1ccc[n+](Cc2ccccc2)c1 — within 0.2 log units, 2.02
- c1ccc2c(c1)CCO2 — higher, 3.17
- CC1=CCC(=C(C)C)CC1 — higher, 5.05
- CCOC(=O)[C@H](O)[C@@H](O)C(=O)OCC — higher, 2.5
- Oc1ccc(Cl)cc1 — higher, 4.46
- Clc1cc(Cl)cc(C2(CC(Cl)(Cl)Cl)CO2)c1 (stereo not given) — higher, 5.38
- O=C(O)CCCOc1ccc(Cl)cc1Cl — higher, 4.14
- CCCCCCCCCCc1ccc(N)cc1 — higher, 6.57
- C=C(C)C1CC=C(C)CC1 (stereo not given) — within 0.2 log units, 2.15
- Nc1ccc(Br)cn1 — higher, 2.99
- COc1ccc(C(C)=O)c(OC)c1OC — higher, 3.02
- C=CC(=C)C — higher, 2.95
- CC12CCC(CC1)C(C)(C)O2 — higher, 3.18
- CCNc1cccc(C)c1 — higher, 3.44
- C1COCCO1 — lower, 0.931
- NCCCN1CCN(CCCN)CC1 — lower, 1.81
- CCSCCSCC — higher, 3.4
- CCN(CC)N=O — the same, 2.12
- ClCCCCCl — higher, 3.39
- BrC(Br)c1ccccc1C(Br)Br — higher, 5.99
- C=C(C)C(=O)OCCOCC — higher, 3.76
- O=C1C2CC=CCC2C(=O)N1SC(Cl)(Cl)Cl (stereo not given) — higher, 6.35
- ClC1(Cl)C2(Cl)C3(Cl)C4(Cl)C(Cl)(Cl)C5(Cl)C3(Cl)C1(Cl)C5(Cl)C24Cl (stereo not given) — higher, 3.62
- CCOC(=O)CCC(=O)OCC — higher, 3.1
- CC(=O)Br — higher, 3.48
- CC(C)(C)SC(C)(C)C — higher, 3.7
- COC(=O)c1ccc(C(=O)OC)c(N)c1 — higher, 4.37
- CC(C)(C)c1ccc(Oc2cccc(C=O)c2)cc1 — higher, 5.84
- Cc1ccc([N+](=O)[O-])c(N)c1[N+](=O)[O-] — higher, 4.21
- O=C(Nc1cccc(Cl)c1)c1cccc([N+](=O)[O-])c1O — higher, 6.08
- CC=CC=CC — higher, 3.61
- C=C(C)C(=O)OCC1CCCO1 (stereo not given) — higher, 3.69
- O=S(c1ccccc1)c1ccccc1 — higher, 3.37
- COc1cc(C=O)cc(Br)c1O — higher, 3.59
- O=C1c2ccccc2C(=O)N1SC(Cl)(Cl)Cl — higher, 6.21
- O=C(Oc1ccccc1)c1ccccc1C(=O)Oc1ccccc1 — higher, 6.6
- CC(=O)/C=C/C1=C(C)CCCC1(C)C — higher, 4.58
- CCCCCCCCS(=O)C(C)Cc1ccc2c(c1)OCO2 (stereo not given) — higher, 5.64
- CCCSCCC — higher, 3.74
- C#CC(O)(c1ccccc1)c1ccccc1 — higher, 4.27
- ClC1=C(Cl)C2(Cl)C3C(Cl)C=CC3C1(Cl)C2(Cl)Cl (stereo not given) — higher, 6.75
- Cc1c(N)cccc1[N+](=O)[O-] — higher, 3.48
- CCN1C(=O)CC(=O)N(CC)C1=S — lower, 1.65
- CN(C)C(=O)N[C@@H]1C[C@@H]2C[C@H]1[C@@H]1CCC[C@H]21 — higher, 3.84
- CCOC(N)=O — lower, 1.23
- CC(=O)c1ccc(Cl)c([N+](=O)[O-])c1 — higher, 4.56
- Oc1ccc(Oc2ccc(O)cc2)cc1 — higher, 4.54
- C#CC(C)(O)c1ccccc1 (stereo not given) — higher, 3.11
- Brc1ccccc1Br — higher, 4.76
- CN(C)N — higher, 3.88
- CC(C)(C)CC(C)(C)N — higher, 3.72
- CC(O)C#N (stereo not given) — higher, 4.9
- CCCCN(CC)c1c([N+](=O)[O-])cc(C(F)(F)F)cc1[N+](=O)[O-] — higher, 6.53
- O=c1cccc(Cl)[nH]1 — higher, 2.78
- OCC(F)(F)F — higher, 2.92
- Cc1cc(C)c([N+](=O)[O-])cc1[N+](=O)[O-] — higher, 4.39
- COc1ccccc1[N+](=O)[O-] — higher, 2.9
- Fc1ccc(Oc2ccc(F)cc2)cc1 — higher, 5.26
- COCOC — lower, 1.04
- Cc1ncc[nH]1 — higher, 2.46
- C=C(C)[C@H]1CC=C(C)CC1 — higher, 5.28
- CCOC(=O)CC(S)C(=O)OCC (stereo not given) — higher, 3.77
- CCC(C)C=O (stereo not given) — higher, 3.94
- CC(C)CCCCCOC(=O)C(C)Oc1cc(Cl)c(Cl)cc1Cl (stereo not given) — higher, 4.24
- CC(=O)O — higher, 2.86
- OCCN1CCNCC1 — lower, 1.31
- CC1(C)CCC(C)(C)O1 — higher, 2.88
- CCN(CC)c1c([N+](=O)[O-])cc(C(F)(F)F)c(N)c1[N+](=O)[O-] — higher, 5.39
- CCOP(=S)(OCC)Oc1ccc(S(C)=O)cc1 (stereo not given) — higher, 3.85
- CCOC(=O)/C=C\C(=O)OCC — higher, 3.98
- Oc1cc(Cl)c(Cl)cc1O — higher, 5.3
- Oc1ccccc1Cl — higher, 4.02
- C=CCNc1ccccc1 — higher, 3.57
- CC(C)OC(C)C — within 0.2 log units, 2.11
- COc1ccc(C=O)c(OC)c1 — higher, 3.92
- CC(C)=CCC/C(C)=C/CO — higher, 4.59
- O=C(O)C(Cl)(Cl)Cl — lower, 1.91
- COP(O)(=S)OC — higher, 3.52
- CCNc1nc(NC(C)C)nc(SC)n1 — higher, 4.38
- CCC(C)c1cccc(OC(=O)N(C)Sc2ccccc2)c1 (stereo not given) — higher, 6.91
- Cc1ccc(N(C)C)cc1 — higher, 3.42
- CCOP(=O)(OCC)OP(=O)(OCC)OCC — higher, 5.35
- CC(=O)Nc1ccccc1O — higher, 3.66
- OC1COC(O)C(O)C1O (stereo not given) — lower, 0.6
- Clc1cccc(C(Cl)(Cl)Cl)n1 — higher, 4.37
- Nc1ccc(-c2ccc(N)c(Cl)c2)cc1Cl — higher, 5.08
- CNC(=O)Oc1ccc(N(C)C)c(C)c1 — higher, 5.03
- CCCSP(=O)(OCC)Oc1ccc(Br)cc1Cl (stereo not given) — higher, 6.64
- O=Cc1cccc(C(F)(F)F)c1 — higher, 5.28
- c1ccc2c(c1)CCC2 — higher, 3.93
- O=CN(c1ccccc1)c1ccccc1 — higher, 3.81
- O[C@@H]1CCCC[C@H]1c1ccccc1 — higher, 3.6
- C=CCCCCCCC=C — higher, 5.68
- ClCc1ccccc1 — higher, 4.4
- S=c1[nH]c2cc(Cl)ccc2s1 — higher, 4.8
- C#CCC(C)O (stereo not given) — higher, 3.38
- C1CN2CCN1CC2 — lower, 1.81
- Nc1ccc([N+](=O)[O-])cc1Cl — higher, 3.93
- O=Cc1cccc(Oc2ccc(Cl)c(Cl)c2)c1 — higher, 5.95
- c1ccc(Nc2ccccc2)cc1 — higher, 4.65
- CC(C)(C)CCN — within 0.2 log units, 2.23
- c1ccc(-c2cccc(-c3ccccc3)n2)cc1 — higher, 6.04
- CCNc1nc(NC(C)(C)C)nc(OC)n1 — higher, 3.66
- CCN(CC)c1ccc(C=O)cc1 — higher, 3.87
- O=Cc1cc([N+](=O)[O-])ccc1Cl — higher, 4.67
- CC(C)C(C(=O)OC(C#N)c1cccc(Oc2ccccc2)c1)c1ccc(Cl)cc1 (stereo not given) — higher, 8.14
- Cc1c([N+](=O)[O-])ccc([N+](=O)[O-])c1N — higher, 5.37
- Cc1ccc([N+](=O)[O-])c(N)c1 — higher, 3.79
- c1ccc(-c2ccc(-c3ccccc3)o2)cc1 — higher, 6.64
- CC(C)Oc1cccc(NC(=O)c2ccccc2C(F)(F)F)c1 — higher, 4.83
- O=C1C2CC3CC(C2)CC1C3 — higher, 3.39
